Measured values as given in PubChem BioAssay (NCI).
Where “and” joins values, the source holds several entries; their conditions need not be identical. Equal values may be shown once.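 Values below derive from 48-hour exposures of cells grown in 96-well plates, with endpoints linearly interpolated between the two concentrations bracketing the appropriate inhibition level. GI50 = concentration required for 50% inhibition of growth. Definition used: TGI = concentration required for complete inhibition of growth.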 Calls of active or inactive are those of the source. No stated cut-off is given here; in the data, active means GI50 below about 0.43 µM; inactive means the rest.

What was measured:
Experiment in all cases: NCI-60 cell line screen, 48 h
786-0 renal = system: 786-0 renal
A549 NSCLC = system: A549 NSCLC
ACHN renal = system: ACHN renal
CAKI-1 renal = system: CAKI-1 renal
CCRF-CEM leukemia = system: CCRF-CEM leukemia
COLO 205 colon = system: COLO 205 colon
DLD-1 colon = system: DLD-1 colon
DMS 114 small cell lung = system: DMS 114 small cell lung
DMS 273 small cell lung = system: DMS 273 small cell lung
EKVX NSCLC = system: EKVX NSCLC
HCC-2998 colon = system: HCC-2998 colon
HCT-116 colon = system: HCT-116 colon
HCT-15 colon = system: HCT-15 colon
HL-60(TB) leukemia = system: HL-60(TB) leukemia
HOP-62 NSCLC = system: HOP-62 NSCLC
HOP-92 NSCLC = system: HOP-92 NSCLC
HT29 colon = system: HT29 colon
IGROV1 ovarian = system: IGROV1 ovarian
K-562 leukemia = system: K-562 leukemia
KM12 colon = system: KM12 colon
KM20L2 colon = system: KM20L2 colon
LOX IMVI melanoma = system: LOX IMVI melanoma
LXFL 529 NSCLC = system: LXFL 529 NSCLC
M14 melanoma = system: M14 melanoma
M19-MEL melanoma = system: M19-MEL melanoma
MALME-3M melanoma = system: MALME-3M melanoma
MOLT-4 leukemia = system: MOLT-4 leukemia
NCI-H226 lung = system: NCI-H226 lung
NCI-H23 lung = system: NCI-H23 lung
NCI-H460 lung = system: NCI-H460 lung
NCI-H522 lung = system: NCI-H522 lung
OVCAR-3 ovarian = system: OVCAR-3 ovarian
OVCAR-4 ovarian = system: OVCAR-4 ovarian
OVCAR-5 ovarian = system: OVCAR-5 ovarian
OVCAR-8 ovarian = system: OVCAR-8 ovarian
RPMI-8226 leukemia = system: RPMI-8226 leukemia
RXF 393 renal = system: RXF 393 renal
SF-268 CNS = system: SF-268 CNS
SF-295 CNS = system: SF-295 CNS
SF-539 CNS = system: SF-539 CNS
SK-MEL-2 melanoma = system: SK-MEL-2 melanoma
SK-OV-3 ovarian = system: SK-OV-3 ovarian
SN12C renal = system: SN12C renal
SNB-19 CNS = system: SNB-19 CNS
SNB-75 CNS = system: SNB-75 CNS
SNB-78 CNS = system: SNB-78 CNS
SR leukemia = system: SR leukemia
SW-620 colon = system: SW-620 colon
U251 CNS = system: U251 CNS
UACC-257 melanoma = system: UACC-257 melanoma
UACC-62 melanoma = system: UACC-62 melanoma
UO-31 renal = system: UO-31 renal
A498 renal = system: A498 renal
DU-145 prostate = system: DU-145 prostate
HS 578T breast = system: HS 578T breast
MDA-MB-231 breast = system: MDA-MB-231 breast
MDA-MB-435 = system: MDA-MB-435
MDA-N = system: MDA-N
NCI/ADR-RES ovarian = system: NCI/ADR-RES ovarian
PC-3 prostate = system: PC-3 prostate
SK-MEL-28 melanoma = system: SK-MEL-28 melanoma
SK-MEL-5 melanoma = system: SK-MEL-5 melanoma
T-47D breast = system: T-47D breast
TK-10 renal = system: TK-10 renal

O=C1CC2CC(O1)[C@H]1O[C@H]1C2 (stereo partly drawn)
outcome (786-0 renal): inactive
outcome (A549 NSCLC): inactive
outcome (ACHN renal): inactive
outcome (CAKI-1 renal): inactive
outcome (CCRF-CEM leukemia): inactive
outcome (COLO 205 colon): inactive
outcome (DLD-1 colon): inactive
outcome (DMS 114 small cell lung): inactive
outcome (DMS 273 small cell lung): inactive
outcome (EKVX NSCLC): inactive
outcome (HCC-2998 colon): inactive
outcome (HCT-116 colon): inactive
outcome (HCT-15 colon): inactive
outcome (HL-60(TB) leukemia): inactive
outcome (HOP-62 NSCLC): inactive
outcome (HOP-92 NSCLC): inactive
outcome (HT29 colon): inactive
outcome (IGROV1 ovarian): inactive
outcome (K-562 leukemia): inactive
outcome (KM12 colon): inactive
outcome (KM20L2 colon): inactive
outcome (LOX IMVI melanoma): inactive
outcome (LXFL 529 NSCLC): inactive
outcome (M14 melanoma): inactive
outcome (M19-MEL melanoma): inactive
outcome (MALME-3M melanoma): inactive
outcome (MOLT-4 leukemia): inactive
outcome (NCI-H226 lung): inactive
outcome (NCI-H23 lung): inactive
outcome (NCI-H460 lung): inactive
outcome (NCI-H522 lung): inactive
outcome (OVCAR-3 ovarian): inactive
outcome (OVCAR-4 ovarian): inactive
outcome (OVCAR-5 ovarian): inactive
outcome (OVCAR-8 ovarian): inactive
outcome (RPMI-8226 leukemia): inactive
outcome (RXF 393 renal): inactive
outcome (SF-268 CNS): inactive
outcome (SF-295 CNS): inactive
outcome (SF-539 CNS): inactive
outcome (SK-MEL-2 melanoma): inactive
outcome (SK-OV-3 ovarian): inactive
outcome (SN12C renal): inactive
outcome (SNB-19 CNS): inactive
outcome (SNB-75 CNS): inactive
outcome (SNB-78 CNS): inactive
outcome (SR leukemia): inactive
outcome (SW-620 colon): inactive
outcome (U251 CNS): inactive
outcome (UACC-257 melanoma): inactive
outcome (UACC-62 melanoma): inactive
outcome (UO-31 renal): inactive

CC(=O)NC1C(OCc2ccccc2)OC(CO)C(O)C1OC(C)C(=O)NC(C)C(=O)N[C@@H](CCC(=O)OCCCNC1c2ccccc2Nc2cccc([N+](=O)[O-])c21)C(N)=O (stereo partly drawn)
GI50 (786-0 renal): 6.74 nM
TGI (786-0 renal): 30.6 nM
TGI (A498 renal): 20 nM
GI50 (A549 NSCLC): 30.6 nM
TGI (ACHN renal): 46.5 nM and < 40.7 nM
GI50 (CAKI-1 renal): 28 nM
TGI (CAKI-1 renal): 102 nM and 16.3 nM
GI50 (CCRF-CEM leukemia): 44.4 nM and 24.9 nM
TGI (CCRF-CEM leukemia): 422 nM and 1200 nM
GI50 (COLO 205 colon): 13.4 nM
TGI (COLO 205 colon): 27.4 nM
TGI (DMS 114 small cell lung): 21.5 nM
TGI (DMS 273 small cell lung): < 10.6 nM
TGI (DU-145 prostate): 79.9 nM
TGI (EKVX NSCLC): 33.4 nM and 35.6 nM
GI50 (HCC-2998 colon): 16.4 nM
TGI (HCC-2998 colon): 32.2 nM
GI50 (HCT-116 colon): 3.01 nM
TGI (HCT-116 colon): 24.2 nM and < 11.6 nM
TGI (HCT-15 colon): 24.5 nM
GI50 (HL-60(TB) leukemia): 21.1 nM
TGI (HL-60(TB) leukemia): 125 nM and 39.8 nM
GI50 (HOP-62 NSCLC): 23.4 nM
GI50 (HOP-92 NSCLC): 15.9 nM
TGI (HOP-92 NSCLC): 43.4 nM and 27 nM
TGI (HS 578T breast): 72.5 nM
GI50 (HT29 colon): 5.83 nM
TGI (HT29 colon): 29.5 nM and 10.2 nM
GI50 (IGROV1 ovarian): 51.4 nM
TGI (IGROV1 ovarian): 267 nM and 86.1 nM
TGI (K-562 leukemia): 14.1 nM
GI50 (KM12 colon): 21.1 nM
TGI (KM12 colon): 51.6 nM and < 10.7 nM
GI50 (LOX IMVI melanoma): 181 nM
TGI (LOX IMVI melanoma): 441 nM and 103 nM
TGI (LXFL 529 NSCLC): < 23.2 nM
GI50 (M14 melanoma): 20.1 nM
TGI (M14 melanoma): 48.5 nM
GI50 (MALME-3M melanoma): 15.7 nM
TGI (MALME-3M melanoma): 32.4 nM
TGI (MDA-MB-231 breast): 74 nM
TGI (MDA-MB-435): 30.9 nM
TGI (MDA-N): 31.7 nM
GI50 (MOLT-4 leukemia): 40.6 nM
TGI (MOLT-4 leukemia): 425 nM and 48.6 nM
GI50 (NCI-H226 lung): 14.7 nM
TGI (NCI-H226 lung): 45.5 nM and < 15.1 nM
TGI (NCI-H23 lung): 29.5 nM
GI50 (NCI-H460 lung): 1.38 nM
TGI (NCI-H460 lung): 14 nM and 13 nM
GI50 (NCI-H522 lung): 13.8 nM
TGI (NCI-H522 lung): 40.5 nM and < 15.1 nM
TGI (NCI/ADR-RES ovarian): 54.5 nM
GI50 (OVCAR-3 ovarian): 27.2 nM
TGI (OVCAR-3 ovarian): 94.5 nM and 10.2 nM
GI50 (OVCAR-4 ovarian): 31.4 nM
TGI (OVCAR-4 ovarian): 140 nM and < 18 nM
GI50 (OVCAR-5 ovarian): 10.5 nM
TGI (OVCAR-5 ovarian): 73.7 nM and 48.8 nM
GI50 (OVCAR-8 ovarian): 20 nM
TGI (OVCAR-8 ovarian): 76.5 nM and 34.7 nM
TGI (PC-3 prostate): 141 nM
TGI (RPMI-8226 leukemia): < 17.4 nM
TGI (RXF 393 renal): 32 nM
GI50 (SF-268 CNS): 19.5 nM
TGI (SF-268 CNS): 63.9 nM and 51.2 nM
GI50 (SF-295 CNS): 67.7 nM
TGI (SF-295 CNS): 433 nM and 59.6 nM
GI50 (SF-539 CNS): 29.7 nM
TGI (SF-539 CNS): 110 nM and 16.7 nM
GI50 (SK-MEL-2 melanoma): 22.1 nM
TGI (SK-MEL-2 melanoma): 53.2 nM
GI50 (SK-MEL-28 melanoma): 27 nM
TGI (SK-MEL-28 melanoma): 64.3 nM and 15.5 nM
GI50 (SK-MEL-5 melanoma): 20 nM
TGI (SK-MEL-5 melanoma): 53.8 nM and 15.2 nM
GI50 (SK-OV-3 ovarian): 147 nM
TGI (SK-OV-3 ovarian): 644 nM and 96.5 nM
GI50 (SN12C renal): 17.8 nM
TGI (SN12C renal): 97.5 nM and < 12.2 nM
GI50 (SNB-19 CNS): 30.3 nM
TGI (SNB-19 CNS): 211 nM and 58.4 nM
GI50 (SNB-75 CNS): 28.4 nM
TGI (SNB-75 CNS): 145 nM and 48 nM
TGI (SNB-78 CNS): 40.7 nM
GI50 (SR leukemia): 0.3 nM
TGI (SR leukemia): 9.48 nM and 22.1 nM
GI50 (SW-620 colon): 1.35 nM
TGI (SW-620 colon): 17 nM and 55.7 nM
TGI (T-47D breast): 669 nM
TGI (TK-10 renal): 30.1 nM
GI50 (U251 CNS): 13.8 nM
TGI (U251 CNS): 49.7 nM and 15.9 nM
TGI (UACC-257 melanoma): 15.9 nM
TGI (UACC-62 melanoma): < 11.2 nM
TGI (UO-31 renal): 38.4 nM
